Each structure is given as a SMILES string.

What all share (assay type): cell-based, human
For series [1], the system named is MCF7 cells. Briefly: WST-8 cell viability assay, breast cancer cell line MCF7. To be noted: 3.70, 11.11, 33.33 and 100 μM, FIG. 6. As to the method:
(§1) In addition, the cell line in this experiment was distributed from ATCC (American Type Culture Collection; Manassas, VA). Human-derived tumor cell lines, breast cancer cell lines MCF7 and T47D was cultured in DMEM medium containing 10% fetal bovine serum (FBS; HyClone, South Logan, UT) and 1% penicillin/streptomycin (Corning, NY, USA) at 37° C. and 5% CO2, and the BT549 breast cancer cell line was cultured in RPMI 1640 (Welgene, Daegu, Korea) as a medium used under the same conditions. Human-derived normal cell line MCF10A was cultured in DMEM/F12 (Invitrogen) medium containing 5% horse serum (Invitrogen), 1% penicillin/streptomycin, 20 ng/ml EGF (Peprotech, London, UK), […] (Sigma-Aldrich, MO, USA), 100 ng/ml cholera toxin (Cholera Toxin, Sigma-Aldrich) and 10 μg Insulin (Sigma-Aldrich) at 37° C. and 5% CO2.
(§2) Briefly, MCF7 and MCF10A cells were seeded into 96-well plates, incubated for 24 hours, and then was treated with 42 inhibitor candidates. Among the compounds, the multi-AGC kinase inhibitor AT13148 was used as a positive control. Thereafter, the absorbance was measured at 450 nm using a Versamax microplate reader (Molecular Devices, CA, USA), and the results of the experiment were shown in FIG. 1A.
(§3) In order to confirm whether the selected MKI-1 can kill only cancer cells, an experiment was performed by treating with MKI-1 and measuring whether the cell viability of breast cancer cell lines and normal cell lines was changed. WST-8 analysis (Cyto X™ cell viability assay kit, LPS solution, Daejeon, Korea) was performed according to the manufacturer's protocol. Cancer cells MCF7 and BT549 and normal cell line MCF10A cells were inoculated into a 96-well plate, cultured for 24 hours, and then treated with MASTL kinase inhibitors at various concentrations (3.70, 11.11, 33.33 and 100 μM). Thereafter, the absorbance was measured at 450 nm using a Versamax micro plate reader (Molecular Devices, CA, USA), and the results were shown in FIG. 6.
On the technique in general: Formazan colour is commonly taken as a measure of viable cells.

The subject of another series is MCF10A cells. As to the kind of experiment: WST-8 cell viability assay, normal cell line MCF10A. To be noted: 3.70, 11.11, 33.33 and 100 μM, FIG. 6. The method, then:
as §1, §2, §3

The test system of the next series is BT549 cells. Briefly: WST-8 cell viability assay, breast cancer cell line BT549. To be noted: 3.70, 11.11, 33.33 and 100 μM, FIG. 6. The method, then: as §1, §3
For a further series, the system named is AKT. As to the kind of experiment: Western blotting of AKT and GSK-3 phosphorylation in MCF7 cells. To be noted: western blot, FIG. 5. As to the method:
20 μg of protein was separated by SDS-PAGE electrophoresis and transferred to a PVDF membrane, and the following specific antibodies were used: rabbit polyclonal antibody MASTL (Abgent); phospho-ENSA (Ser67)/ARPP19 (Ser62) (#5240), ENSA (#11915S), cleaved PARP (Asp214) (#9541), AKT (#9272), phospho-AKT (ser473) (#9271), phospho-GSK-3α/β (Ser21/9) (#9331), phospho-p70S6K (The 288) (#9205) and phospho-Chk2 (Thr68) (#2661; Cell Signaling Technology, MA); p70S6K (sc-230; Santa Cruz Biotechnology, CA, USA), phospho-H3 (S10) (06-570, Merck, NJ); mouse monoclonal antibody caspase-2 (#2224S). In addition, mouse […] antibody β-actin (C4; Santa Cruz Biotechnology, CA, USA) was used as a loading control, it was washed with 1×PBS/0.1% Tween 20, and the binding protein was detected using HRP-binding secondary antibody and improved chemiluminescence detection system. The remaining conditions of Western blotting were the same as in Example 3, and the image of the band was obtained by Amersham Imager 600 system (GE Healthcare Life Science) or X-Ray film (AG, HealthCare, SC, USA) and it was shown in FIG. 5.
In general terms: Immunoblotting shows a protein as a band on a membrane.

For series [2], the system named is MCF7 cells. As to the kind of experiment: Colony formation analysis. To be noted: MCF7, cultured 15 days, compared to DMSO, FIG. 7. The method, then:
Colony formation analysis was performed to confirm whether the selected MKI-1 can effectively kill cancer cells. First, breast cancer cells MCF7 (500-1000 cells) were cultured in a 60 mm culture plate, and after 24 hours, it was treated with MASTL kinase inhibitors (AT13148, MKI-1 and GKI-1), respectively and cultured for 15 days. Cells were fixed and stained with […] to which methanol was added to quantify the number of colonies, which was shown in FIG. 7.

The test system of series [3] is MCF7 cells. As to the kind of experiment: Tumorsphere formation assay. To be noted: MCF7, cultured 15 days, compared to DMSO, FIG. 8. The method, then:
A tumorsphere formation assay was performed in order to determine whether the selected MKI-1 can effectively reduce the formation of tumorsphere in cancer cells, Breast cancer cells MCF7 (2500-10000 cells) was suspended in serum-free DMEM/F12 (weIGENE) containing 1% penicillin, B-27 (1:50; invitrogen), 20 ng/mL epidermal cell growth factor (R&D Systems) and 20 ng/mL fibroblast growth factor (R&D Systems) and cultured on plates with low adhesion rate. After 24 hours, the cells were treated with MASTL kinase inhibitors (AT13148, MKI-1 and GKI-1), respectively, and cultured for 15 days, and then the diameter of the tumorsphere was measured and quantified, which was shown in FIG. 8.

Series [4] relates to MCF7 cells. Briefly: 3D culture spheroid formation. To be noted: MCF7 3D culture, AT13148 2 μM, GKI-1 10 μM, MKI-1 10 μM, FIG. 9. As to the method: 3D culture was performed according to the protocol of the manufacturing company TheWell Bioscience. It was inoculated into 24-wells containing a DMEM mixture containing 10,000 MCF7 cells in an MCF7 cell:hydrogel solution in a ratio of 1:3 (v/v) and VitroGel™ 3D-RGD diluted with 0.1% PBS in a ratio of 1:3 (v/v) of a hydrogel:diH2O. Thereafter, incubation was performed at 37° C. for 15 minutes to stabilize the VitroGel 3D-RGD hydrogel. To cover the hydrogel, the same volume of DMEM as the hydrogel was added, and the next day, the hydrogel was treated with a DMSO base drug containing DMSO, AT13148 (2 μM), GKI-1 (10 μM) and MKI-1 (10 μM). The medium was exchanged every 2 days for 14 to 20 days.

Consider `NC[C@@](O)(c1ccc(Cl)cc1)c1ccc(-c2cn[nH]c2)cc1` [AT13148, reference compound], for which the “cell viability, MCF7” value in the series on MCF7 cells [1] is on record as “drastically reduced cell viability”. Also, in the series on MCF10A cells, the “cell viability, normal cell line MCF10A” value is “drastically reduced cell viability”. In the series on BT549 cells, the “cell viability, BT549” value is on record as “drastically reduced cell viability”. Further, the “activation of AKT / phosphorylated GSK-3” value in the series on AKT is given as “strongly inhibited the activation of AKT”. Moreover, the “number of cancer cell colonies” value with MCF7 cells [2] was “significantly reduced”. Also, the tumorsphere diameter entry in the series with MCF7 cells [3] is reported as “significantly decreased”. Besides, the “size of cancer cell spheroid” value with MCF7 cells [4] is “significantly reduced”.

The values above are taken from patent US12029730B2, “Pharmaceutical composition for preventing or treating cancer, containing N-1H-benzimidazol-2-yl-3-(1H-pyrrole-1-yl)benzamide as active ingredient” (KOREA INSTITUTE OF RADIOLOGICAL & MEDICAL SCIENCES, priority 2018, dated 2024).
